According to patent US20210322582A1, “RADIOACTIVE IMIDAZOTHIADIAZOLE DERIVATIVE COMPOUND” (Nihon Medi-Physics Co., Ltd., priority 2018, published 2021):
“And” between values parts separate entries of the source, which are not always exact repeats. Identical values can stand only once.

System: HT-29-transplanted tumor
Assay: Biodistribution of [^111In]ITDA1 in HT-29 cancer-bearing mouse
Type: in vivo
Settings: for Accumulation of radioactivity: Blood / Accumulation of radioactivity: Brain / Accumulation of radioactivity: Heart / Accumulation of radioactivity: Intestines / Accumulation of radioactivity: Kidney / Accumulation of radioactivity: Liver / Accumulation of radioactivity: Lungs / Accumulation of radioactivity: Muscle / Accumulation of radioactivity: Pancreas / Accumulation of radioactivity: Spleen / Accumulation of radioactivity: Stomach / Accumulation of radioactivity: Tumor (HT-29) / Tumor/blood / Tumor/muscle: HT-29 mouse
Experimental: HT-29 cells (5×10^6 cells/mouse) were subcutaneously inoculated into the left shoulder of each of 5-week old male BALB/c nude mice (purchased from Shimizu Laboratory Supplies Co., Ltd., the same applies to the following Examples). A saline solution (100 μL) in which [^111In]ITDA1 (37 kBq) had been dissolved was administered to each of the HT-29 cancer-bearing mice (n=5) via the tail vein. The mice were slaughtered after the lapse of 1, 4, 8, and 24 hours from the administration, and the blood, spleen, pancreas, stomach, intestines, kidney, liver, heart, lungs, brain, HT-29-transplanted tumor, and muscle were recovered. The weight of each organ was measured, and the amount of radioactivity in each organ was measured by using a gamma counter. The accumulation of radioactivity in each organ was expressed by % ID (injected dose)/g obtained by dividing the ratio of the amount of radioactivity of each organ to the administered amount of radioactivity by the organ weight.

Accumulation of radioactivity: Blood (1 h after administration): 0.27 ± 0.03 % ID/tissue weight (g) | Accumulation of radioactivity: Brain (1 h after administration): 0.30 ± 0.02 % ID/tissue weight (g) | Accumulation of radioactivity: Heart (1 h after administration): 7.58 ± 1.20 % ID/tissue weight (g) | Accumulation of radioactivity: Intestines (1 h after administration): 10.86 ± 1.27 % ID/tissue weight (g) | Accumulation of radioactivity: Kidney (1 h after administration): 111.20 ± 12.39 % ID/tissue weight (g) | Accumulation of radioactivity: Liver (1 h after administration): 3.59 ± 0.98 % ID/tissue weight (g) | Accumulation of radioactivity: Lungs (1 h after administration): 13.49 ± 5.52 % ID/tissue weight (g) | Accumulation of radioactivity: Muscle (1 h after administration): 5.44 ± 1.59 % ID/tissue weight (g) | Accumulation of radioactivity: Pancreas (1 h after administration): 31.32 ± 5.29 % ID/tissue weight (g) | Accumulation of radioactivity: Spleen (1 h after administration): 0.33 ± 0.10 % ID/tissue weight (g) | Accumulation of radioactivity: Stomach (1 h after administration): 2.59 ± 0.69 % ID | Accumulation of radioactivity: Tumor (HT-29) (1 h after administration): 3.81 ± 0.79 % ID/tissue weight (g) | Tumor/blood (1 h after administration): 14.41 ± 3.35 | Tumor/muscle (1 h after administration): 0.74 ± 0.25 | Accumulation of radioactivity: Blood (4 h after administration): 0.25 ± 0.18 % ID/tissue weight (g) | Accumulation of radioactivity: Brain (4 h after administration): 0.35 ± 0.05 % ID/tissue weight (g) | Accumulation of radioactivity: Heart (4 h after administration): 3.49 ± 0.74 % ID/tissue weight (g) | Accumulation of radioactivity: Intestines (4 h after administration): 14.20 ± 1.28 % ID/tissue weight (g) | Accumulation of radioactivity: Kidney (4 h after administration): 115.12 ± 8.70 % ID/tissue weight (g) | Accumulation of radioactivity: Liver (4 h after administration): 3.86 ± 0.92 % ID/tissue weight (g) | Accumulation of radioactivity: Lungs (4 h after administration): 5.09 ± 1.69 % ID/tissue weight (g) | Accumulation of radioactivity: Muscle (4 h after administration): 2.69 ± 0.76 % ID/tissue weight (g) | Accumulation of radioactivity: Pancreas (4 h after administration): 18.81 ± 2.04 % ID/tissue weight (g) | Accumulation of radioactivity: Spleen (4 h after administration): 0.31 ± 0.12 % ID/tissue weight (g) | Accumulation of radioactivity: Stomach (4 h after administration): 5.22 ± 0.79 % ID | Accumulation of radioactivity: Tumor (HT-29) (4 h after administration): 4.20 ± 0.68 % ID/tissue weight (g) | Tumor/blood (4 h after administration): 21.70 ± 8.65 | Tumor/muscle (4 h after administration): 1.62 ± 0.33 | Accumulation of radioactivity: Blood (8 h after administration): 0.18 ± 0.02 % ID/tissue weight (g) | Accumulation of radioactivity: Brain (8 h after administration): 0.41 ± 0.05 % ID/tissue weight (g) | Accumulation of radioactivity: Heart (8 h after administration): 2.16 ± 0.31 % ID/tissue weight (g) | Accumulation of radioactivity: Intestines (8 h after administration): 14.99 ± 1.27 % ID/tissue weight (g) | Accumulation of radioactivity: Kidney (8 h after administration): 83.81 ± 7.88 % ID/tissue weight (g) | Accumulation of radioactivity: Liver (8 h after administration): 3.15 ± 0.78 % ID/tissue weight (g) | Accumulation of radioactivity: Lungs (8 h after administration): 3.54 ± 1.19 % ID/tissue weight (g) | Accumulation of radioactivity: Muscle (8 h after administration): 1.75 ± 0.37 % ID/tissue weight (g) | Accumulation of radioactivity: Pancreas (8 h after administration): 9.80 ± 2.34 % ID/tissue weight (g) | Accumulation of radioactivity: Spleen (8 h after administration): 0.21 ± 0.05 % ID/tissue weight (g) | Accumulation of radioactivity: Stomach (8 h after administration): 6.09 ± 0.82 % ID | Accumulation of radioactivity: Tumor (HT-29) (8 h after administration): 5.16 ± 0.62 % ID/tissue weight (g) | Tumor/blood (8 h after administration): 29.14 ± 5.15 | Tumor/muscle (8 h after administration): 3.03 ± 0.66 | Accumulation of radioactivity: Blood (24 h after administration): 0.16 ± 0.02 % ID/tissue weight (g) | Accumulation of radioactivity: Brain (24 h after administration): 0.48 ± 0.03 % ID/tissue weight (g) | Accumulation of radioactivity: Heart (24 h after administration): 1.56 ± 0.30 % ID/tissue weight (g) | Accumulation of radioactivity: Intestines (24 h after administration): 17.99 ± 1.59 % ID/tissue weight (g) | Accumulation of radioactivity: Kidney (24 h after administration): 65.13 ± 7.13 % ID/tissue weight (g) | Accumulation of radioactivity: Liver (24 h after administration): 2.21 ± 0.34 % ID/tissue weight (g) | Accumulation of radioactivity: Lungs (24 h after administration): 2.06 ± 0.66 % ID/tissue weight (g) | Accumulation of radioactivity: Muscle (24 h after administration): 1.43 ± 0.53 % ID/tissue weight (g) | Accumulation of radioactivity: Pancreas (24 h after administration): 8.13 ± 0.91 % ID/tissue weight (g) | Accumulation of radioactivity: Spleen (24 h after administration): 0.42 ± 0.18 % ID/tissue weight (g) | Accumulation of radioactivity: Stomach (24 h after administration): 8.74 ± 0.46 % ID | Accumulation of radioactivity: Tumor (HT-29) (24 h after administration): 8.71 ± 1.41 % ID/tissue weight (g) | Tumor/blood (24 h after administration): 53.56 and 53.56 ± 5.53 | Tumor/muscle (24 h after administration): 6.59 and 6.59 ± 2.18 | Accumulation in the HT-29-transplanted tumor (one hour after administration): 3.81 % ID/g
Structure (SMILES): NS(=O)(=O)c1nn2cc(-c3ccc(NC(=O)CN4CCN(CC(=O)O)CCN(CC(=O)O)CCN(CC(=O)O)CC4)cc3)nc2s1.[111In+3] [[^111In]ITDA1, [^111In]indium(III)2,2′,2″-(10-(2-oxo-2-((4-(2-sulfamoylimidazo[2,1-b][1,3,4]thiadiazol-6-yl)phenyl)amino)ethyl)-1,4,7,10-tetraazacyclododecan-1,4,7-triyl) triacetic acid]
